The values that follow come from patent US8604207B2, “Nitrogenous heterocyclic derivative and medicine containing the same as an active ingredient” (Ono Pharmaceutical Co., Ltd., priority 2004, dated 2013).

Structures are written as SMILES. Where a name gives a salt, the structure may show the parent alone.

The test system of data set [1] is human cultured PBMC. Description: Cell migration test (in vitro, human MIP-1β-induced migration of human cultured PBMC). It is filed as cell-based. To be noted: human MIP-1β in lower well, incubated 1.5 hours, average value (n=3), read-out: IC50 value, inhibitory activity against human MIP-1β-induced cell migration of human cultured PBMC. Here is the method: Preparation of PBMC (Peripheral Blood Mononuclear Cell)
Human venous blood (50 mL) collected by using syringe with heparin sodium (final concentration: 10 U/mL, heparin sodium injection 1000 U/mL, Shimizu Pharmaceutical Co., Ltd.) was stored into 50 mL of conical tube made by polypropylene. To a Lymphoprep tube (HYCOMED PHARMA, Cat. No 1019818), 16.5 mL of DPBS (−) (GIBCO, Cat No. 14190-136) and a blood sample were added, jiggled several times, then centrifuged at 3000 rpm for 10 minutes at room temperature. […]
50 μL of 5×10^5 cells of the human PBMC suspension (culture medium) and 50 μL of the solution of the test compound (0-2 μmol/L: double concentration of a final concentration) were added to an upper well of transwell (coster), and 300 μL of 60 nmol/L of the human MIP-1β (Pepro tech, Cat. No. 300-09) and 300 μL of a double concentration of the solution of the test compound were added to a lower well. […] 100 μL of the solution was transferred to white 96 well plate for fluorescence from lower well by pipetting, an amount of cells was measured by using Celltiter Glo (Promega) (a measurement of ATP), Cell migration inhibition ratio was calculated by the following calculating formula. The value of IC50 was calculated from cell migration inhibition ratio of each concentration. […]

Data set [2] is described as follows: Stability test in liver microsome of monkey. To be noted: liver microsome of monkey 1 mg/mL, test compound 5 μmol/L, 30 minutes at 37° C. In general terms: Liver microsomes are a subcellular fraction often used to study metabolism.

Consider `CS(=O)(=O)Nc1ccc(Oc2ccc(CN3CCC(N(C(=O)Nc4ccc(F)cc4)c4ccsc4)CC3)cn2)cc1` [Example 7(29), N-(4-{[5-({4-[{[(4-fluorophenyl)amino]carbonyl}(3-thienyl)amino]-1-piperidinyl}methyl)-2-pyridinyl]oxy}phenyl)methanesulfonamide hydrochloride (or dihydrochloride)], for which the IC50 in data set [1] was found to be 1.2 nM.
In the case of `CC(=O)Nc1cc(NC(=O)N(c2ccccc2)C2CCN(Cc3ccc(Oc4ccc(NS(C)(=O)=O)cc4)nc3)CC2)ccc1F` [Example 7(83), N-[2-fluoro-5-({[{1-[(6-{4-[(methylsulfonyl)amino]phenoxy}-3-pyridinyl)methyl]-4-piperidinyl}(phenyl)amino]carbonyl}amino)phenyl]acetamide hydrochloride (or dihydrochloride)], in data set [2], the “residual ratio of the unmetabolite” value is on record as 88%.
